Where two headings read alike, the source gives them in different places.
Legend:
GES-1, lysate of pa 1063 = GES-1, lysate of pa 1063 (Klebsiella pneumoniae, UniProt Q9KJY7); test: Inhibition of ceftazidime hydrolysis by bacterial lysate
OXA-2, lysate of KX1000 = OXA-2, lysate of KX1000 (Salmonella typhimurium, UniProt P0A1V8); test: as above
OXA-10, lysate of KP1007 = OXA-10, lysate of KP1007 (Pseudomonas aeruginosa, UniProt P14489); test: as above
[1] = molecular target: CTX-M-15, lysate of KP1009 (Escherichia coli, UniProt Q9EXV5); test: as above
Sequence of CTX-M-15, lysate of KP1009 (Q9EXV5 entry or part of it): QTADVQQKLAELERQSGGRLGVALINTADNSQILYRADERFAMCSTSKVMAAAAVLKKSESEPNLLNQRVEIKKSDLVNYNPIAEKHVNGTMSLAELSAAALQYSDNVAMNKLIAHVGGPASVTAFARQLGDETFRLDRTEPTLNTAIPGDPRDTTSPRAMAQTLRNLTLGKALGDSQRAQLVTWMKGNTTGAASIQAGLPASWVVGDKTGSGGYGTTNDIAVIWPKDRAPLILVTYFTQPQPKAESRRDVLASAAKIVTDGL

[2] = tested on: AB1052 Acinetobacter baumannii OXA-24; test: Checkerboard assay, biapenem potentiation; conditions: Biapenem MIC 8-fold; AB1052 OXA-24 class D
SHV-12, lysate of KP1010 = SHV-12, lysate of KP1010 (Klebsiella pneumoniae, UniProt P0AD64, E235K/G234S/L31Q); test: Inhibition of ceftazidime hydrolysis by bacterial lysate
[3] = tested on: ECL1004 Enterobacter cloacae NMC-A; test: Checkerboard assay, biapenem potentiation; conditions: Biapenem MIC 8-fold; ECL1004 NMC-A class A
[4] = tested on: SM1000 Serratia marcescens SME-2; test: Checkerboard assay, biapenem potentiation; conditions: Biapenem MIC 8-fold; SM1000 SME-2 class A
[5] = molecular target: various β-lactamases (bacterial lysates) (Escherichia coli, UniProt A0A5R8T042); test: biochemical; type: biochemical; conditions: read-out: AZT IC50 KP1009 CTX-M-15
Sequence of various β-lactamases (bacterial lysates) (Escherichia coli, UniProt A0A5R8T042) (A0A5R8T042 29-291): as the sequence (Q9EXV5 entry or part of it) above

[6] = molecular target: various β-lactamases (bacterial lysates) (Klebsiella pneumoniae, UniProt Q9F663, H272Y); test: biochemical; type: biochemical
[7] = molecular target: various β-lactamases (bacterial lysates) (Klebsiella pneumoniae, UniProt Q9F663); test: biochemical; type: biochemical; conditions: aztreonam cleavage
KPC-2, lysate of KP1008 = KPC-2, lysate of KP1008 (Klebsiella pneumoniae, UniProt Q9F663); test: Inhibition of ceftazidime hydrolysis by bacterial lysate
SHV-2, lysate of ec306 = SHV-2, lysate of ec306 (Escherichia coli, UniProt P0A9Z7); test: as above
SHV-5, lysate of ec308 = SHV-5, lysate of ec308 (Escherichia coli, UniProt P0AD63, E235K/G234S); test: as above
[8] = tested on: KP1006 Klebsiella pneumoniae CTX-M2; test: Ceftazidime MIC with fixed concentration of BLI; type: cell-based; conditions: derivative at 10 μg/mL
Procedure: (§1) Next, ceftazidime potentiation activity of several cyclic boronic acid ester derivatives was tested using a larger panel of strains expressing β-lactamase hydrolyzing enzymes. Ceftazidime MICs were determined alone and in the presence of fixed concentrations of various cyclic boronic acid ester derivatives.

[9] = tested on: ECL1003 Enterobacter cloacae Hyper AmpC expression; test: Ceftazidime MIC with fixed concentration of BLI; type: cell-based; conditions: derivative at 10 μg/mL
Procedure: as §1

[10] = tested on: ec302 Escherichia coli TEM-10; test: Ceftazidime MIC with fixed concentration of BLI; type: cell-based; conditions: derivative at 10 μg/mL; ec302 TEM-10
Procedure: as §1

[11] = tested on: ec300 Escherichia coli TEM-3; test: Ceftazidime MIC with fixed concentration of BLI; type: cell-based; conditions: derivative at 10 μg/mL; ec300 TEM-3
Procedure: as §1

[12] = tested on: CF1001 Citrobacter freundii Hyper AmpC expression; test: Ceftazidime MIC with fixed concentration of BLI; type: cell-based; conditions: derivative at 10 μg/mL
Procedure: as §1

SA1000 Salmonella CMY-2 = test: Ceftazidime MIC with fixed concentration of BLI; type: cell-based; conditions: derivative at 10 μg/mL; SA1000 CMY-2
Procedure: as §1

[13] = tested on: EC1016 Escherichia coli FOX-5; test: Ceftazidime MIC with fixed concentration of BLI; type: cell-based; conditions: derivative at 10 μg/mL; EC1016 FOX-5
Procedure: as §1

[14] = tested on: KP1014 Klebsiella pneumoniae Vim-1; test: Ceftazidime MIC with fixed concentration of BLI; type: cell-based; conditions: derivative at 10 μg/mL; KP1014 Vim-1
Procedure: as §1

[15] = tested on: AB1052 Acinetobacter baumannii OXA-24; test: Ceftazidime MIC with fixed concentration of BLI; type: cell-based; conditions: derivative at 10 μg/mL; AB1052 OXA-24
Procedure: as §1

[16] = tested on: KP1013 Klebsiella pneumoniae CMY-2; test: Ceftazidime MIC with fixed concentration of BLI; type: cell-based; conditions: derivative at 10 μg/mL; KP1013 CMY-2
Procedure: as §1

[17] = molecular target: various β-lactamases (bacterial lysates) (Escherichia coli, UniProt Q53TY8); test: Inhibition of nitrocefin cleavage by bacterial lysates, Table 11; type: biochemical; conditions: lysate EC1010 pAmpC (CMY-6), read-out: NCF IC50 EC1010 pAmpC (CMY-6)
[18] = molecular target: CTX-M-14, lysate of KP1005 (Escherichia coli, UniProt Q9L5C7); test: Inhibition of ceftazidime hydrolysis by bacterial lysate
KPC-2, lysate of KP1004 = KPC-2, lysate of KP1004 (Klebsiella pneumoniae, UniProt Q9F663); test: as above
SME-2, lysate of SM1000 = SME-2, lysate of SM1000 (Serratia marcescens, UniProt P52682); test: Inhibition of biapenem hydrolysis by bacterial lysate; conditions: read-out: IC50 of inhibition of biapenem hydrolysis; SM1000 SME-2
DHA-1, lysate of EC1014 = DHA-1, lysate of EC1014 (Escherichia coli, UniProt Q84AE0); test: Inhibition of ceftazidime hydrolysis by bacterial lysate; conditions: read-out: IC50 of inhibition of Ceftazidime hydrolysis; EC1014 DHA-1

Compound `O=C(O)C[C@@H]1CC[C@H](NC(=O)Cc2ccccc2)B(O)O1` [Compound 6, 2-((3R,6S)-2-hydroxy-3-(2-phenylacetamido)-1,2-oxaborinan-6-yl)acetic acid] has an IC50 (GES-1, lysate of pa 1063) of 0.344 to 3.44 µM, an IC50 (OXA-2, lysate of KX1000) of 0.344 to 3.44 µM and an IC50 (OXA-10, lysate of KP1007) of over 3.44 µM. For the same compound, the IC50 [1] was 0.344 to 3.44 µM, the MPC8 [2] was “Z (MPC8 of greater than 1 μg/mL)” and the IC50 (SHV-12, lysate of KP1010) was over 3.44 µM. The MPC8 [3] was “Y (MPC8 of 0.16 μg/mL to 1 μg/mL)”, the MPC8 [4] was “Y (MPC8 of 0.16 μg/mL to 1 μg/mL)” and the IC50 [5] was under 1.72 µM. It also gave an IC50 [6] of under 1.72 µM, an IC50 ([7]; lysate KP1004 KPC-2, read-out: AZT IC50 KP1004 KPC-2 (converted)) of under 1.72 µM and an IC50 ([7]; lysate KP1008 KPC-2, read-out: AZT IC50 KP1008 KPC-2) of under 1.72 µM. It also gave an IC50 (KPC-2, lysate of KP1008) of under 0.344 µM, an IC50 (SHV-2, lysate of ec306) of 0.344 to 3.44 µM and an IC50 (SHV-5, lysate of ec308) of over 3.44 µM. The “Ceftazidime MIC with cyclic boronic acid ester derivative” value (shortened to “Ceftazidime MIC”) [8] was “X (MIC of 1 μg/mL or less)”, the “Ceftazidime MIC” value [9] was “Z (MIC of greater than 8 μg/mL)” and the “Ceftazidime MIC” value [10] was “Z (MIC of greater than 8 μg/mL)”. For the same compound, the “Ceftazidime MIC” value [11] was “Z (MIC of greater than 8 μg/mL)”, the “Ceftazidime MIC” value [12] was “Y (MIC of greater than 1 μg/mL to 8 μg/mL)” and the “Ceftazidime MIC” value (SA1000 Salmonella CMY-2) was “X (MIC of 1 μg/mL or less)”. For the same compound, the “Ceftazidime MIC” value [13] was “Z (MIC of greater than 8 μg/mL)”, the “Ceftazidime MIC” value [14] was “Z (MIC of greater than 8 μg/mL)” and the “Ceftazidime MIC” value [15] was “Z (MIC of greater than 8 μg/mL)”. For the same compound, the “Ceftazidime MIC” value [16] was “Y (MIC of greater than 1 μg/mL to 8 μg/mL)”, the IC50 [17] was over 6.87 µM and the IC50 [18] was 0.344 to 3.44 µM. For the same compound, the IC50 (KPC-2, lysate of KP1004) was under 0.344 µM, the IC50 (SME-2, lysate of SM1000) was 0.344 to 3.44 µM and the IC50 (DHA-1, lysate of EC1014) was over 3.44 µM.

— patent US11090319B2, “Therapeutic uses of pharmaceutical compositions comprising cyclic boronic acid ester derivatives” (Melinta Subsidiary Corp., priority 2010, dated 2021)
